How the values were obtained:
xenograft = experiment: In vivo xenograft study; design: species or system female athymic nu/nu mice; conditions: as of day 26; intravenously, at 80% and at 50% of the single dose maximum tolerated dose
Protocol: Briefly, for run of the experiment, a previously untreated group of 8-12 week old mice was intravenously administered a test article prepared in saline and diluted to appropriate concentrations to allow administration volumes of a maximum of 20 mL/kg. Each compound of interest was tested twice: once at 80% of the maximum tolerated dose and once at 50% of the maximum tolerated (maximum tolerated doses calculated on the single dose maximum tolerated dose study).
Mice were observed daily for clinical signs and body weights were recorded daily (except on weekend days) then biweekly until the end of study. Dosing was terminated for any group in which mean weight loss exceeded 20% or >10% of animals died. Moribund animals were euthanized.

[1] = Single dose maximum tolerated dose study; assay type: in vivo, mice; conditions: single intravenous dose
Protocol: Because of too much efficacy of daily dosing for ten days in a pilot xenograft study (likely due to the effects of repeated dosing), a single dose maximum tolerated dose study was conducted using a method similar to that provided in Example 3 in order to have a better dosing schedule for a comparative xenograft study.

in vivo = conditions: for Days of Deaths (s = surviving at study end): five mice listed singly; for Day of Max. Mean Body Weight Loss (body weight nadir) / % Rx Related Deaths: once each day for ten days; for MTD at 10 days: female, SCID (HsdIcr:Ha (ICR)-Prkdc-scid), iv
Protocol: The purpose of this study was to determine the maximum tolerated dose for pemetrexed (PMX), Compound 20a (from Example 1), Compound 20b (from Example 1), Compound 20c (from Example 1), and Compound 20d (from Example 1) in female SCID mice fed a low folate diet. All compounds were administered intravenously, once each day, for ten consecutive days.
Calculations were made to provide “dose equivalents” between PMX, Compound 20a, Compound 20b, Compound 20c and Compound 20d, which “dose equivalents” along with the “actual dose” administered are provided in Table 2. All dosagese in this example are expressed in terms of “dose equivalents” and adjustments were made for excipients, salts and hydration state.
Female SCID mice (HsdIcr:Ha (ICR)-Prkdc-scid) were obtained from Harlan. They were seven weeks old on Day 1 of the experiment. The mice in Groups 1 and 2 were fed irradiated Rodent Diet 5053 (LabDiet™). The mice in Groups 3 through 19 were fed irradiated Folic Acid Deficient Purina TestDiet supplemented with 1% succinylsufathiazol from 14 days prior to dosing until 14 days after dosing was completed, at which time the study was terminated and the mice were then euthanized. All groups received drinking water ad libitum. Mice were housed in static cages in clean rooms that provide H.E.P.A filtered air into the environment at 100 complete air changes per hour. All treatments, body weight determinations, and tumor measurements were carried out in the environment. The environment was controlled to a temperature range of 70°±2° F. and a humidity range of 30-70%. […] Mice found in obvious distress or in a moribund condition were euthanized. The study was carried out in an AAALAC accredited facility.
Treatments began on Day 1. […] Mice in Groups 3 through 19 were fed irradiated Folic Acid Deficient Purina TestDiet with 1% Succinylsufathiazol for 14 days prior to dosing as well as throughout the entire experiment. All mice were dosed according to individual body weight on the day of treatment (0.2 ml/20 g).
Mice were weighed on each day of treatment and at least three times weekly thereafter. Individual body weights were recorded three times weekly. […] In this report, a dosage level is described as tolerated if treatment-related weight loss (during and two weeks after treatment) is <20%. Upon death or euthanasia, all mice were necropsied to provide a general assessment of potential cause of death and perhaps target organs for toxicity.

[2] = in vivo; cited from earlier work
[3] = low folate diet, 1 mg/kg/inj dose equivalents
[4] = low folate diet, 1 mg/kg, tolerated if treatment-related weight loss <20%
[5] = low folate diet, 3.75 mg/kg/inj dose equivalents
[6] = low folate diet, 3.75 mg/kg, tolerated if treatment-related weight loss <20%
[7] = low folate diet, 15 mg/kg/inj dose equivalents
[8] = low folate diet, 15 mg/kg, tolerated if treatment-related weight loss <20%
[9] = low folate diet, dosage levels found tolerated
[10] = low folate diet, intravenously once each day for ten days, 1 mg/kg/inj dose equivalents
[11] = low folate diet, intravenously once each day for ten days, 3.75 mg/kg/inj dose equivalents
[12] = low folate diet, intravenously once each day for ten days, 15 mg/kg/inj dose equivalents
[13] = low folate diet, dosage levels found toxic
[14] = low folate diet, 60 mg/kg/inj dose equivalents

4-arm-PEG20k-γ-amide-Pemetrexed Conjugate [Compound 20b]
tumor volume compared with saline control (xenograft): significantly less tumor volume than saline control
tumor volume compared with the other articles tested (xenograft): lowest tumor volumes of all articles tested
Single dose MTD ([1]; dose equivalents, in mg/kg): 70
BWL (body weight loss) ([1]; tested dose (equiv) 70): −8.7%
day (of body weight loss) ([1]; tested dose (equiv) 70): 7
treatment-related deaths ([1]; tested dose (equiv) 70): 0
BWL (body weight loss) ([1]; tested dose (equiv) 95): −16.4%
day (of body weight loss) ([1]; tested dose (equiv) 95): 7
treatment-related deaths ([1]; tested dose (equiv) 95): 0
BWL (body weight loss) ([1]; tested dose (equiv) 125): −24.4%
day (of body weight loss) ([1]; tested dose (equiv) 125): 7
mean day of death ([1]; tested dose (equiv) 125): 9
treatment-related deaths ([1]; tested dose (equiv) 125): 1
Days of Deaths (s = surviving at study end) (in vivo; [3]): s, s, s, s, s
tolerability of the dosage level (in vivo; [4]): well tolerated
Days of Deaths (s = surviving at study end) (in vivo; [5]): s, s, s, s, s
tolerability of the dosage level (in vivo; [6]): well tolerated
Days of Deaths (s = surviving at study end) (in vivo; [7]): s, s, s, s, s
tolerability of the dosage level (in vivo; [8]): well tolerated
common clinical signs (in vivo; [9]): Rough pelage
necropsy findings (in vivo; [9]): Nothing significant
Max. Mean Body Weight change during Rx (%) (in vivo; [10]): −1.8%
Max. Mean Body Weight change during Rx (%) (in vivo; [11]): −6.5%
Max. Mean Body Weight change during Rx (%) (in vivo; [12]): −16.9%
Day of Max. Mean Body Weight Loss (body weight nadir) (in vivo; [3]): 5
Day of Max. Mean Body Weight Loss (body weight nadir) (in vivo; [5]): 5
Day of Max. Mean Body Weight Loss (body weight nadir) (in vivo; [7]): 12
MTD (maximum tolerated dose) (in vivo; mice fed a folate deficient diet, intravenously once each day for ten days, dose equivalents): ~15 mg/kg

Nc1nc2[nH]cc(CCc3ccc(C(=O)N[C@@H](CCC(=O)O)C(=O)O)cc3)c2c(=O)[nH]1 [Pemetrexed, pemetrexed]
tumor volume compared with saline control (xenograft): significantly less tumor volume than saline control
MTD ([1]; mouse, in vivo, dose equivalents): 50 mg/kg
BWL (body weight loss) ([1]; tested dose (equiv) 50): −9.7%
day (of body weight loss) ([1]; tested dose (equiv) 50): 2
treatment-related deaths ([1]; tested dose (equiv) 50): 0
BWL (body weight loss) ([1]; tested dose (equiv) 80): −3.8%
day (of body weight loss) ([1]; tested dose (equiv) 80): 2
treatment-related deaths ([1]; tested dose (equiv) 80): 0
BWL (body weight loss) ([1]; tested dose (equiv) 120): −4.1%
day (of body weight loss) ([1]; tested dose (equiv) 120): 2
treatment-related deaths ([1]; tested dose (equiv) 120): 0
drug excreted unchanged in the urine [2]: 70-90%
half-life [2]: 3.5 h
MTD at 10 days (in vivo; mouse, in vivo, MTD (maximum tolerated dose), mice fed a folate deficient diet, intravenously once each day for ten days, dose equivalents): 1 mg/kg
MTD at 10 days (in vivo; mouse, in vivo, maximum tolerated dose, mice fed a conventional diet, intravenously once each day for ten days): < 250 mg/kg
maximum treatment-related body weight loss (in vivo; low folate diet, 1 mg/kg): 12.8%
Days of Deaths (s = surviving at study end) (in vivo; [3]): s, s, s, s, s
tolerability of the dosage level (in vivo; [4]): tolerated
Days of Deaths (s = surviving at study end) (in vivo; [5]): s, s, s, s, s
tolerability of the dosage level (in vivo; [6]): toxic
tolerability of the dosage level (in vivo; [8]): toxic
tolerability of the dosage level (in vivo; low folate diet, 60 mg/kg, tolerated if treatment-related weight loss <20%): toxic
body weight nadir (Day) (in vivo; low folate diet, across 60, 15 and 3.75 mg/kg): 10-12
common clinical signs (in vivo; [9]): rough pelage
necropsy findings (in vivo; [9]): nothing significant
common clinical signs (in vivo; [13]): rough pelage and diarrhea
necropsy findings (in vivo; [13]): bloated, air-filled stomachs, pale livers, and necrotic intestines
Max. Mean Body Weight change during Rx (%) (in vivo; [10]): −12.8%
Max. Mean Body Weight change during Rx (%) (in vivo; [11]): −30.7%
Max. Mean Body Weight change during Rx (%) (in vivo; [12]): −38.4%
Max. Mean Body Weight change during Rx (%) (in vivo; low folate diet, intravenously once each day for ten days, 60 mg/kg/inj dose equivalents): −38.1%
Day of Max. Mean Body Weight Loss (body weight nadir) (in vivo; [3]): 12
% Rx Related Deaths (in vivo; low folate diet, 1 mg/kg/inj dose equivalents, 1 mg/kg): 0%
% Rx Related Deaths (in vivo; low folate diet, 1 mg/kg/inj dose equivalents, listed as PMX, 1 mg/kg): no treatment-related mortality
% Rx Related Deaths (in vivo; [5]): 0%
Day of Max. Mean Body Weight Loss (body weight nadir) (in vivo; [5]): 12
% Rx Related Deaths (in vivo; [7]): 40%
Day of Max. Mean Body Weight Loss (body weight nadir) (in vivo; [7]): 10
% Rx Related Deaths (in vivo; [14]): 100%
Day of Max. Mean Body Weight Loss (body weight nadir) (in vivo; [14]): 10
tolerability of the dosage level (in vivo; mouse, in vivo): toxic
Lethality (in vivo; normal diet, 500 mg/kg): 100%

From patent US11612662B2, “Multi-arm polymeric prodrug conjugates of pemetrexed-based compounds” (priority 2010, dated 2023)
